Results: US10428060B2, “PI-kinase inhibitors with anti-infective activity” (The Board of Trustees of the Leland Stanford Junior …, priority 2011, dated 2019)

Experiments:
PI4KIIIA = target: T1, PI4KIIIA (Homo sapiens, UniProt P42356); test: PI4KIIIA kinase assay; type: biochemical
T1 construct: made in house; host or cells: COS-7 cells, transient transfection, anti-HA immunoprecipitate on protein G Sepharose beads
Experimental: In the assays described here, p110α-p85 complex and p110γ were acquired from Millipore. Assays were performed with Lα-phosphatidylinositol (Avanti) as described in Knight et al. Nat Protoc. 2007; 2 (10):2459-66. Inhibitor series were prepared 10% DMSO as 5× stocks for the assay. Assays of HsVps34 were performed as described in Knight et al, except that the final assay buffer composition used was changed to 20 mM HEPES 7.5, 100 mM NaCl, 3 mM MgCl, 1 mg/mL PI and 44 nM hvps34 was used in the assay. […] COS-7 cells were cultured in 10 cm dishes and transfected at 70% confluence with 10 μg of plasmid DNA (HA-tagged bovine PI4KIIIβ, HA-tagged human PI4KIIIα) using Lipofectamine 2000 and 5 ml Opti-MEM following the manufacturer's instructions. After 5 hours the transfection medium was replaced with 10 ml complete DMEM. 36 hrs post transfection, cells were washed once with 5 ml PBS (pH 7.4) and lysed in 1 ml of lysis buffer (1) on ice. Lysates were collected by scraping and after 15 min they were centrifuged at 13,000 rpm for 10 min. To the lysates was added 200 μl of protein G Sepharose 4 fast flow beads that were prewashed with PBS and lysis buffer and 2 μg of anti-HA antibody. The tubes were then incubated overnight at 4 degrees C. in a tube rotator. The Sepharose beads in the lysate were washed twice with 150 mM NaCl in RIPA buffer, twice with RIPA buffer and once with kinase buffer (50 mM Tris/HCl, pH 7.5, 20 mM MgCl2, 1 mM EGTA, 1 mM PtdIns, 0.4% Triton X-100, 0.5 mg/mL BSA) and finally the beads were resuspended in 200 μL kinase buffer. Kinase reactions were run in a mixture of 45 μL of PI buffer (1 mM PI in kinase buffer), 10 μL of immunoprecipitated beads, 2 µL of inhibitors (dissolved and diluted in DMSO) or DMSO and 5 μL of [γ-^32P]-ATP (1 mM and 2 μCi/tube). The immunoprecipitates in PI buffer were pre-incubated with the drugs for 20 min prior the initiation of kinase reaction by adding ATP and the reactions were carried out for 30 min in 15 ml polypropolyne tubes. […] Samples were counted in a scintillation beta counter after adding 5 ml of Instafluor (Perkin-Elmer). […]

PI3K p110a = target: T2, PI3K p110a (Homo sapiens, UniProt P42336); test: PI3K p110a kinase assay; type: biochemical
T2 construct: purchased Millipore
Experimental: In the assays described here, p110α-p85 complex and p110γ were acquired from Millipore. Assays were performed with Lα-phosphatidylinositol (Avanti) as described in Knight et al. Nat Protoc. […] Inhibitor series were prepared 10% DMSO as 5× stocks for the assay. […] COS-7 cells were cultured in 10 cm dishes and transfected at 70% confluence with 10 μg of plasmid DNA (HA-tagged bovine PI4KIIIβ, HA-tagged human PI4KIIIα) using Lipofectamine 2000 and 5 ml Opti-MEM following the manufacturer's instructions. After 5 hours the transfection medium was replaced with 10 ml complete DMEM. 36 hrs post transfection, cells were washed once with 5 ml PBS (pH 7.4) and lysed in 1 ml of lysis buffer (1) on ice. […] To the lysates was added 200 μl of protein G Sepharose 4 fast flow beads that were prewashed with PBS and lysis buffer and 2 μg of anti-HA antibody. The tubes were then incubated overnight at 4 degrees C. in a tube rotator. […] Kinase reactions were run in a mixture of 45 μL of PI buffer (1 mM PI in kinase buffer), 10 μL of immunoprecipitated beads, 2 µL of inhibitors (dissolved and diluted in DMSO) or DMSO and 5 μL of [γ-^32P]-ATP (1 mM and 2 μCi/tube). […] Samples were counted in a scintillation beta counter after adding 5 ml of Instafluor (Perkin-Elmer). […]

HRV = test: Rhinovirus antiviral assay; type: cell-based; details: Human rhinovirus sp.

T2 sequence (P42336 whole entry): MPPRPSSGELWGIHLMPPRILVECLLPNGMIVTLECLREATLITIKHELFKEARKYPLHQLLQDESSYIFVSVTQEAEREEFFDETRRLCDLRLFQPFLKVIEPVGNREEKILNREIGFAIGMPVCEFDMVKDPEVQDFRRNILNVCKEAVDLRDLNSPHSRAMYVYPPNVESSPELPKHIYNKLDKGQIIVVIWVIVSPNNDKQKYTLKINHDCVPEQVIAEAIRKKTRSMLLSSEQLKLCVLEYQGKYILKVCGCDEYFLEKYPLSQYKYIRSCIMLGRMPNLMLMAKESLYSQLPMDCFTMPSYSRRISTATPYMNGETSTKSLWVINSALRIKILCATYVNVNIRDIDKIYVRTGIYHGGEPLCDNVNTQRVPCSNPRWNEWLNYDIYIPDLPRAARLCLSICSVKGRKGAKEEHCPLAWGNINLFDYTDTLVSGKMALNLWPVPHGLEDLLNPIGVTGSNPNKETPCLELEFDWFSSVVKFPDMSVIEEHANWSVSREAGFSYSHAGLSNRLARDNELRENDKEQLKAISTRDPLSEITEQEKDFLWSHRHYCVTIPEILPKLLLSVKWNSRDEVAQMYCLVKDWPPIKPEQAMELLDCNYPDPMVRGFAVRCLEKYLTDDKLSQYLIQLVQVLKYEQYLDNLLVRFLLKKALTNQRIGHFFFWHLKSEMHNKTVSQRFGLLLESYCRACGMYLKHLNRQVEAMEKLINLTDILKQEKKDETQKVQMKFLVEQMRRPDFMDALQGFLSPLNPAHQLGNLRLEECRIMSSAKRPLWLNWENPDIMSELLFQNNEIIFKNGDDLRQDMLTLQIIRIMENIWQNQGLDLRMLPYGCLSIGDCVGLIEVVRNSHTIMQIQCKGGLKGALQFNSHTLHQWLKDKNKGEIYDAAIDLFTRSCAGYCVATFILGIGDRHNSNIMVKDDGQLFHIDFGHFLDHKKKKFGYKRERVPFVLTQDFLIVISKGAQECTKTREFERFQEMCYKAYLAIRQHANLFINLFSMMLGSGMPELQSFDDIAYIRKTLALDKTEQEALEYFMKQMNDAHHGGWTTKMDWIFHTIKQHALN
T2 sequence (P27986 whole entry partner): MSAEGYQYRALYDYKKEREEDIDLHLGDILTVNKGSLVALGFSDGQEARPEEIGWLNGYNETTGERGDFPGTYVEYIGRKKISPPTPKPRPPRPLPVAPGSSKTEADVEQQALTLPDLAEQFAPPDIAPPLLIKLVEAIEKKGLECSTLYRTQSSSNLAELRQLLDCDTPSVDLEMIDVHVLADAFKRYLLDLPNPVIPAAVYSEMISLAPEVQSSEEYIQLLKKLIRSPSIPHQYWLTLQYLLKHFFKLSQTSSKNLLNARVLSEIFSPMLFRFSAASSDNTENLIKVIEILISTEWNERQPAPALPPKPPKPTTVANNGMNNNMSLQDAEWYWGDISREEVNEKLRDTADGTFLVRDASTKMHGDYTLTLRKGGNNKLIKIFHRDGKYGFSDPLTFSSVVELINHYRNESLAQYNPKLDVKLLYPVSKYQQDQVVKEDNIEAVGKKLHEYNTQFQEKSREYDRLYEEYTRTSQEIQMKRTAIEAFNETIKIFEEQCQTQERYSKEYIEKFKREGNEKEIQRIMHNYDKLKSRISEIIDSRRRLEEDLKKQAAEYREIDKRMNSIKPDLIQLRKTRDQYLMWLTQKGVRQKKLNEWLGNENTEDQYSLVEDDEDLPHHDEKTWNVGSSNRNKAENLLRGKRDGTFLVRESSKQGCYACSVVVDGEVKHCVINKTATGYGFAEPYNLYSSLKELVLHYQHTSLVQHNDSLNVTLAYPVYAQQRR
T1 sequence (P42356 whole entry): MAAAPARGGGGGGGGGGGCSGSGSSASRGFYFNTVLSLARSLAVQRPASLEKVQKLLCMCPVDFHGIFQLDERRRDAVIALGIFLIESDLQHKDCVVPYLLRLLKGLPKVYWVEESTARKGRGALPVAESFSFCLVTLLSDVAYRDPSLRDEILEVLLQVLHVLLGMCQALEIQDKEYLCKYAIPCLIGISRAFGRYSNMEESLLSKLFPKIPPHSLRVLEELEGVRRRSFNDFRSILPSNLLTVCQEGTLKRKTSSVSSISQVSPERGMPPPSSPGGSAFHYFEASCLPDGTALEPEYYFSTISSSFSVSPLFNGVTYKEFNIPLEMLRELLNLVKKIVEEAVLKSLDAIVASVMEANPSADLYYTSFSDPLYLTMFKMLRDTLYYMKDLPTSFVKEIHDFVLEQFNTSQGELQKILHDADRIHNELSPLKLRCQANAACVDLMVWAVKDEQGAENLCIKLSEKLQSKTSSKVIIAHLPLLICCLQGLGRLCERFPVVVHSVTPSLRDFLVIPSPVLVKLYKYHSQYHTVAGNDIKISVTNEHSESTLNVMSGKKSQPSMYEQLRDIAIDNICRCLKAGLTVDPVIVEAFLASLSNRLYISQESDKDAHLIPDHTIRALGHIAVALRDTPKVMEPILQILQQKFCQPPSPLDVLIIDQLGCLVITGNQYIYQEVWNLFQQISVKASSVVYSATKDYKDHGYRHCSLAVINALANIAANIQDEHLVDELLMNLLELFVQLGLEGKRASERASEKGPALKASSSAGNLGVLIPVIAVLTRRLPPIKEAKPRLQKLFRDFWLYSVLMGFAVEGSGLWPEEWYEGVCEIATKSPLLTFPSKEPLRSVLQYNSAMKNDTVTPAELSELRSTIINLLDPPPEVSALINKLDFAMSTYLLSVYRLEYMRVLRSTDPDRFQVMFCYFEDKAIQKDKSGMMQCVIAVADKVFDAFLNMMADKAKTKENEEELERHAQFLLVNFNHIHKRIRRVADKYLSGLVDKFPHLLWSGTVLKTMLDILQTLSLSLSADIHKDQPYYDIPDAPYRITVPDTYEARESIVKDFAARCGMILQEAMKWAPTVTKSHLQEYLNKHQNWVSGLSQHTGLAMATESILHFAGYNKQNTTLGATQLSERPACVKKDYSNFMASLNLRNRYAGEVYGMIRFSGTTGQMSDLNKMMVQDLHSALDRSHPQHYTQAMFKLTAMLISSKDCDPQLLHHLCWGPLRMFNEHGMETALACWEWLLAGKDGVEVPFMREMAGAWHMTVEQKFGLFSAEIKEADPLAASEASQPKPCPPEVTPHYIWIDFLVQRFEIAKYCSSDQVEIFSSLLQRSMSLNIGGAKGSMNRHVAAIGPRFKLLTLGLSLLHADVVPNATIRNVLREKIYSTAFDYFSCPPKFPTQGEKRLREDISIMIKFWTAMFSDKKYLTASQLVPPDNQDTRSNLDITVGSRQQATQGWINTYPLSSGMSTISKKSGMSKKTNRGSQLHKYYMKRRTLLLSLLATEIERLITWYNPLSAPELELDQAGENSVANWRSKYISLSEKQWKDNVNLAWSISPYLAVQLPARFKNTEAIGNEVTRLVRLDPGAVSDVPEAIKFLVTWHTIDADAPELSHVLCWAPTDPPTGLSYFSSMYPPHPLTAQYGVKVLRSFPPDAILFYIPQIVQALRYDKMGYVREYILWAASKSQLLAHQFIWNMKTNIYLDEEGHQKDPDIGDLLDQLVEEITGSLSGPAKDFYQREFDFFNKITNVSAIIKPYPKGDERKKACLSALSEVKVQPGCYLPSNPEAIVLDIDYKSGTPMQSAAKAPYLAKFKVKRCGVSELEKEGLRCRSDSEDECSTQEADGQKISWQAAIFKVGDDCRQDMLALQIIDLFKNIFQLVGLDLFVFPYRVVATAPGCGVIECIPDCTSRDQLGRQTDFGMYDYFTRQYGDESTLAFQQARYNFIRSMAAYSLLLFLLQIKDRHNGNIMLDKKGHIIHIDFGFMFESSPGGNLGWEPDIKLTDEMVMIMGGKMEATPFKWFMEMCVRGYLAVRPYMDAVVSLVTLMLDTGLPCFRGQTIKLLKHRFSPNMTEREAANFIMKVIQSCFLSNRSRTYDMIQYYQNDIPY

For `COc1ncc(-c2sc(NC(=O)CC3CCOCC3)nc2C)cc1S(=O)(=O)NC1CCCC(O)C1` (stereo not drawn) [Compound S-263], the IC50 (PI4KIIIA) was under 0.1 µM, the IC50 (PI3K p110a) was 1 to 10 µM and the EC50 (HRV) was 1 to 10 µM.
